# US20220062340A1, “IMMUNOTHERAPEUTIC METHODS AND COMPOSITIONS” (KING'S COLLEGE LONDON, priority 2018, published 2022)
# pEC50: −log10 of the molar value. Where “and” joins values, the source holds several entries; their conditions need not be identical. Identical values can stand only once.
# Legend:
# integrin α4β7 on Tregs = assay: α4β7 expression on ex vivo expanded CD45RA+ Tregs from CD patients (flow cytometry); assay type: cell-based, human; conditions: CD4+CD25hiCD127loCD45RA+ Tregs cultured with rapamycin and high dose IL-2 plus the agonist; mean ± SD
# Description: “Complete X-VIVO-15” (Lonza, Walkersville, MD) was used for ex vivo Treg expansion, Treg cytokine challenge experiments and Treg suppression assays. This was supplemented with 100 nM or 10 nM Rapamycin and all-trans retinoic acid (ATRA) 2 μM or 1 nM, or Rapamycin and RAR568 1 nM.
# FACS-sorted Treg populations were plated at 1×10^6 or 0.5×10^6 in X-VIVO-15 medium and activated with anti-CD3/anti-CD28 coated beads (Dynabeads®, Invitrogen, Paisley, UK) at 1:1 bead: cell ratio. Rapamycin was added at day 0 of culture at a final concentration of 100 nM/L +/−ATRA 1 nM/L or RAR568 1 nM/L. Next, 1,000 IU/ml recombinant human IL-2 (rhlL-2) (Proleukin®, Novartis, Camberley, UK) was added at day 5 of culture. Cells were re-stimulated every 10-12 days and expanded for a total of 24-30 days. The phenotype and suppressive ability were assessed at the end of the culture period.
# Flow cytometry panels have been designed to assess the subtypes of regulatory T cells in patients with CD as well as their expression of gut homing molecules. Gating was performed based on natural populations when assessing for CD4^+CD25^highCD127low populations, as well as for CD45RA^+ Treg populations. Additionally, to minimize bias in the assessment of expression of gut homing markers and transcription factors, a fluorochrome minus one (FMO) panel was added for each marker of interest in each experiment that was performed. […]
# [1] = test system: human foetal small bowel xenografts; assay: C.B-17 SCID mouse human intestinal xenotransplant model, Treg trafficking; assay type: in vivo
# Description: Mice are injected with anti-asialo GM1 antibody at day −2 prior to transfer in order to deplete natural killer (NK) cells. On the day of Treg transfer, mice were treated with Tregs that were either expanded with Rapamycin alone or with the addition of RAR568. Mice also received 1000IU of rhlL-2 IP on the day of Treg transfer, to support the Treg in circulation. After three days in circulation, the presence of CFSE labelled Tregs was assessed by FACS in digested xenograft samples and immunofluoresence on frozen sections. […] Induction of α4β7 is functionally relevant in vivo (e) Control XG, no Tregs, (f) XG from mouse treated with Rapa Tregs (g) XG from mouse treated with Rapa+RAR568 Tregs.
# The C.B-17 SCID mouse human intestinal xenograft model has been previously described^28,29. Institutional Review Board (IRB) and Institutional Animal Care and Use Committee (IACUC) approvals were obtained prospectively (Ethics Committee for Animal Experimentation, Hebrew University of Jerusalem; MD-11-12692-4 and the Helsinki Committee of the Hadassah University Hospital; 81-23/04/04). Tregs were labelled with CFSE (Invitrogen) prior to transfer, as per manufacturer's instructions. Xenografts were processed as per LPMC digestion protocol. CFSE positive cells were detected by flow cytometry. Additionally, CFSE positive cells were detected by immunofluorescence on frozen sections from treated xenografts.
# Fresh xenograft sections were fixed and stored in OCT. Fixed cryostat sections were blocked with 20% fetal calf serum (FCS) and stained with rat anti human CD45 (Invitrogen) and mouse antihuman FOXP3 (Biolegend), followed by donkey anti-rat AF594 (Invitrogen) and donkey anti-mouse NL637 (RnD Systems).
# To assess if the induction of α4β7 was functionally relevant in vivo, cells treated with RAR568 or cells expanded under standard conditions were fluorescently labelled and transferred into a SCID mouse xenografted with human fetal intestinal small bowel by intra-venous injection. Inflammation was induced in the xenografts with Mycobactrium Avium Paratuberculosis (MAP). […]
# RARα = target: T1, RARα (Homo sapiens, UniProt P10276); assay: Selectivity profile against human RARs (RARα agonism); assay type: biochemical
# T1 sequence (P10276 1-462): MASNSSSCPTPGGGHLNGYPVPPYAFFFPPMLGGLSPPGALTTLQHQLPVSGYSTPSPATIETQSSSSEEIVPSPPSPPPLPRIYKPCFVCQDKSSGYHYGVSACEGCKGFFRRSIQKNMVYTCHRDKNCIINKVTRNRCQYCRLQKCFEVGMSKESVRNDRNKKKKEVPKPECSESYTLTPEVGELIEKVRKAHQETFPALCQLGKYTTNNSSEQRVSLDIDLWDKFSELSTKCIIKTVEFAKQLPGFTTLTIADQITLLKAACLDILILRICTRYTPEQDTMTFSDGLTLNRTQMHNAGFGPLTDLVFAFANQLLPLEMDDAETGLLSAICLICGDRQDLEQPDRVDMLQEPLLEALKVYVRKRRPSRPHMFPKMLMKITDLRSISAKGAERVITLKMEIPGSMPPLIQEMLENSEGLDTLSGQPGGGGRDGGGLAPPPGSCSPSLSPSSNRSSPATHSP
# RARβ = target: T2, RARβ (Homo sapiens, UniProt P10826); assay: Selectivity profile against human RARs (RARβ); assay type: biochemical
# T2 sequence (P10826 1-455): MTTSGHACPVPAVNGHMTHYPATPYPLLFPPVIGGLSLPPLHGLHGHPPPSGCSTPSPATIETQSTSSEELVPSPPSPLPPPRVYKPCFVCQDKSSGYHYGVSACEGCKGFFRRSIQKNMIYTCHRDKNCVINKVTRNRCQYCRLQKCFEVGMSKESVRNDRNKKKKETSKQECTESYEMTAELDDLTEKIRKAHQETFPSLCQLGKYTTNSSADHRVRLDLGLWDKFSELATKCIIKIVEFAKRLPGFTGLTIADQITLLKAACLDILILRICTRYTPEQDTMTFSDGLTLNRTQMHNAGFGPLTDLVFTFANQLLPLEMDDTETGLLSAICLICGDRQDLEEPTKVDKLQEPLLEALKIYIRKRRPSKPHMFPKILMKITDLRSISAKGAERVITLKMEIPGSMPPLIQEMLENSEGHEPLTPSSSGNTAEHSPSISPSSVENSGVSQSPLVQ
smiles,measurement,setting,value
CCOc1c(Cl)cc(C(=O)Nc2ccc(C(=O)O)c(C)c2)cc1OC(C)C [RAR568],α4β7 expression of expanded Tregs,integrin α4β7 on Tregs,95.9±1.93 and 95.89±1.93
same,Treg trafficking to xenografts,"[1]; 72 hours following i.v. transfer of agonist-treated Tregs, compared to Tregs expanded under standard conditions",significantly more likely to traffic to xenografts
same,Treg trafficking to inflamed xenografts,"[1]; MAP-induced inflammation, agonist-treated Tregs vs standard conditions",significantly more RAR568-treated cells trafficked to the inflamed xenografts
same,presence of CFSE labelled FOXP3+ Tregs in cryosections from inflamed xenografts,"[1]; immunofluorescence, FIG. 5g",evident
same,pEC50,RARα,9.23
same,selectivity for RARα over RARβ,RARβ,290 fold
